Measurements as given in publication PMC11012124, “Synthesis of Novel Triazine-Based Chalcones and 8,9-dihydro-7H-pyrimido[4,5-b][1,4]diazepines as Potential Leads in the Search of Anticancer, Antibacterial and Antifungal Agents” (International Journal of Molecular Sciences, 2024).

How the values were obtained:
[1] = Hemolytic activity, spectrophotometric; type: cell-based, human; conditions: human, human red blood cells (huRBC), 5% hematocrit, 200 μg/mL, 37 °C
CCRF-CEM = test: cells; conditions: Homo sapiens, 48 h
HL-60(TB) = test: cells; conditions: Homo sapiens, HL-60, 48 h
K-562 = test: cells; conditions: Homo sapiens, K562, 48 h
EKVX = test: cells; conditions: Homo sapiens, 48 h
HOP-62 = test: cells; conditions: Homo sapiens, HOP-62, 48 h
NCI-H322M = test: cells; conditions: Homo sapiens, 48 h
NCI-H460 = test: cells; conditions: Homo sapiens, NCI-H460, 48 h
COLO 205 = test: cells; conditions: Homo sapiens, COLO 205, 48 h
HCC-2998 = test: cells; conditions: Homo sapiens, HCC 2998, 48 h
HCT-15 = test: cells; conditions: Homo sapiens, HCT-15, 48 h
HT29 = test: cells; conditions: Homo sapiens, HT-29, 48 h
KM12 = test: cells; conditions: Homo sapiens, KM12, 48 h
SF-268 = test: cells; conditions: Homo sapiens, SF-268, 48 h
SF-295 = test: cells; conditions: Homo sapiens, SF-295, 48 h
SF-539 = test: cells; conditions: Homo sapiens, SF-539, 48 h
SNB-75 = test: cells; conditions: Homo sapiens, SNB-75, 48 h
MALME-3M = test: cells; conditions: Homo sapiens, 48 h
M14 = test: cells; conditions: Homo sapiens, M14, 48 h
SK-MEL-28 = test: cells; conditions: Homo sapiens, SK-MEL-28, 48 h
SK-MEL-5 = test: cells; conditions: Homo sapiens, SK-MEL-5, 48 h
UACC-257 = test: cells; conditions: Homo sapiens, UACC-257, 48 h
UACC-62 = test: cells; conditions: Homo sapiens, UACC-62, 48 h
OVCAR-3 = test: cells; conditions: Homo sapiens, OVCAR-3, 48 h
OVCAR-4 = test: cells; conditions: Homo sapiens, OVCAR-4, 48 h
OVCAR-5 = test: cells; conditions: Homo sapiens, OVCAR-5, 48 h
OVCAR-8 = test: cells; conditions: Homo sapiens, OVCAR-8, 48 h
SK-OV-3 = test: cells; conditions: Homo sapiens, SK-OV-3, 48 h
786-0 = test: cells; conditions: Homo sapiens, 786-0, 48 h
A498 = test: cells; conditions: Homo sapiens, A498, 48 h
CAKI-1 = test: cells; conditions: Homo sapiens, CAKI-1, 48 h
RXF 393 = test: cells; conditions: Homo sapiens, RXF 393, 48 h
SN12C = test: cells; conditions: Homo sapiens, 48 h
TK-10 = test: cells; conditions: Homo sapiens, TK-10, 48 h
UO-31 = test: cells; conditions: Homo sapiens, UO-31, 48 h
MCF7 = test: cells; conditions: Homo sapiens, MCF7, 48 h
HS 578T = test: cells; conditions: Homo sapiens, 48 h
MDA-MB-468 = test: cells; conditions: Homo sapiens, MDA-MB-468, 48 h

Compound `CN(C)c1nc(NCCNS(=O)(=O)c2ccc(C(=O)/C=C/c3ccc(C(F)(F)F)cc3)cc2)nc(Nc2ccc(F)cc2)n1` [24g] has a hemolysis at 24 h, 200 µg/mL [1] of 0.8%, a GI50 (CCRF-CEM) of 3.79 µM and a CC50 (CCRF-CEM; read-out: LC50) of over 100 µM. For the same compound, the GI50 (HL-60(TB)) was 3.81 µM, the CC50 (HL-60(TB); read-out: LC50) was 30 µM and the GI50 (K-562; K-562, 48 h) was 2.98 µM. The CC50 (K-562; read-out: LC50) was 30.4 µM, the GI50 (EKVX) was 4.2 µM and the CC50 (EKVX; read-out: LC50) was 15.7 µM. For the same compound, the GI50 (HOP-62) was 13.6 µM, the CC50 (HOP-62; read-out: LC50) was 27.7 µM and the GI50 (NCI-H322M) was 11.6 µM. The CC50 (NCI-H322M; read-out: LC50) was 24.3 µM, the GI50 (NCI-H460) was 4.09 µM and the CC50 (NCI-H460; read-out: LC50) was 14.9 µM. For the same compound, the GI50 (COLO 205) was 11.2 µM, the CC50 (COLO 205; read-out: LC50) was 24.8 µM and the GI50 (HCC-2998) was 1.77 µM. The CC50 (HCC-2998; read-out: LC50) was 3.61 µM, the GI50 (HCT-15) was 3.22 µM and the CC50 (HCT-15; read-out: LC50) was 11.9 µM. It also gave a GI50 (HT29) of 1.91 µM, a CC50 (HT29; read-out: LC50) of 3.95 µM and a GI50 (KM12) of 2.38 µM. For the same compound, the CC50 (KM12; read-out: LC50) was 6 µM, the GI50 (SF-268) was 7.71 µM and the CC50 (SF-268; read-out: LC50) was 22.5 µM. For the same compound, the GI50 (SF-295) was 11.3 µM, the CC50 (SF-295; read-out: LC50) was 23.5 µM and the GI50 (SF-539) was 10.7 µM. For the same compound, the CC50 (SF-539; read-out: LC50, SF-539, 48 h) was 22.5 µM, the GI50 (SNB-75) was 8.41 µM and the CC50 (SNB-75; read-out: LC50) was 22.7 µM. It also gave a GI50 (MALME-3M) of 14.2 µM, a CC50 (MALME-3M; read-out: LC50) of 27.5 µM and a GI50 (M14) of 3.39 µM. It also gave a CC50 (M14; read-out: LC50) of 12.9 µM, a GI50 (SK-MEL-28) of 10.4 µM and a CC50 (SK-MEL-28; read-out: LC50) of 22.2 µM. It also gave a GI50 (SK-MEL-5) of 10.4 µM, a CC50 (SK-MEL-5; read-out: LC50) of 22.2 µM and a GI50 (UACC-257) of 11 µM. The CC50 (UACC-257; read-out: LC50) was 25 µM, the GI50 (UACC-62) was 6.24 µM and the CC50 (UACC-62; read-out: LC50) was 19.4 µM. The GI50 (OVCAR-3) was 2.04 µM, the CC50 (OVCAR-3; read-out: LC50) was 5.61 µM and the GI50 (OVCAR-4) was 8.78 µM. It also gave a CC50 (OVCAR-4; read-out: LC50) of 23.1 µM, a GI50 (OVCAR-5) of 12 µM and a CC50 (OVCAR-5; read-out: LC50) of 24.4 µM. It also gave a GI50 (OVCAR-8) of 12.3 µM, a CC50 (OVCAR-8; read-out: LC50) of 30.6 µM and a GI50 (SK-OV-3) of 13.7 µM. For the same compound, the CC50 (SK-OV-3; read-out: LC50) was 27.8 µM, the GI50 (786-0) was 10.6 µM and the CC50 (786-0; read-out: LC50) was 22.7 µM. The GI50 (A498) was 13 µM, the CC50 (A498; read-out: LC50) was 26.2 µM and the GI50 (CAKI-1) was 6.46 µM. The CC50 (CAKI-1; read-out: LC50) was 19.7 µM, the GI50 (RXF 393) was 3.7 µM and the CC50 (RXF 393; read-out: LC50) was 16 µM. It also gave a GI50 (SN12C) of 6.36 µM, a CC50 (SN12C; read-out: LC50) of 19.9 µM and a GI50 (TK-10) of 17.4 µM. For the same compound, the CC50 (TK-10; read-out: LC50) was 32 µM, the GI50 (UO-31) was 6.41 µM and the CC50 (UO-31; read-out: LC50) was 19.9 µM. For the same compound, the GI50 (MCF7) was 1.7 µM, the CC50 (MCF7; read-out: LC50) was 3.56 µM and the GI50 (HS 578T) was 12.7 µM. The CC50 (HS 578T; read-out: LC50) was 49.5 µM, the GI50 (MDA-MB-468) was 4.53 µM and the CC50 (MDA-MB-468; read-out: LC50) was 17 µM.
